In patent US20020137929A1, “1 - (3-heterocyclylphenyl) isothiourea, -isourea, -guanidine and -amidine herbicidal agents” (Intellectual Property Department, BASF Aktiengesellschaft, priority 1998, published 2002):

Experiments:
[1] = system: ABUTH (Velvetleaf); assay: Postemergence herbicidal evaluation; assay type: in vivo, Abutilon theophrasti
Summary of the method: (§1)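 Two-week-old seedlings sprayed with compound in 50/50 acetone/water plus 0.5% TWEEN 20, at about 0.0156 to 0.500 kg/ha, nozzle at 40 psi. Kept in greenhouse; rated visually 4-5 weeks after treatment on a 0-9 scale versus control, repeat tests averaged.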

[2] = system: CHEAL (Lambsquarters, Common); assay: Postemergence herbicidal evaluation; assay type: in vivo, Chenopodium album
Summary of the method: as §1

[3] = system: IPOHE (Morningglory, Ivyleaf); assay: Postemergence herbicidal evaluation; assay type: in vivo, Ipomoea hederacea
Summary of the method: as §1

[4] = system: ECHCG (Barnyardgrass); assay: Postemergence herbicidal evaluation; assay type: in vivo, Echinochloa crus-galli
Summary of the method: as §1

[5] = system: SETVI (Foxtail, Green); assay: Postemergence herbicidal evaluation; assay type: in vivo, Setaria viridis
Summary of the method: as §1

[6] = system: ORYSAT (Rice, Tebonnet); assay: Postemergence herbicidal evaluation; assay type: in vivo, Oryza sativa, (L.) Tebonnet
Summary of the method: as §1

[7] = system: ZEAMX (Corn, Field); assay: Postemergence herbicidal evaluation; assay type: in vivo, Zea mays
Summary of the method: as §1

[8] = system: ABUTH (Velvetleaf); assay: Preemergence herbicidal evaluation; assay type: in vivo, Abutilon theophrasti; settings: rated 4-5 weeks after treatment
Summary of the method: (§2)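 Herbicidal effect scored visually, 0-9, at 4 to 5 weeks against a control; compound applied preemergence by aqueous acetone spray to seeded soil at about 0.0156 to 0.500 kg/ha.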

[9] = system: CASOB (Sicklepod); assay: Preemergence herbicidal evaluation; assay type: in vivo, Cassia obtusifolia; settings: rated 4-5 weeks after treatment
Summary of the method: as §2

[10] = system: CHEAL (Lambsquarters, Common); assay: Preemergence herbicidal evaluation; assay type: in vivo, Chenopodium album; settings: rated 4-5 weeks after treatment
Summary of the method: as §2

[11] = system: IPOHE (Morningglory, Ivyleaf); assay: Preemergence herbicidal evaluation; assay type: in vivo, Ipomoea hederacea; settings: rated 4-5 weeks after treatment
Summary of the method: as §2

[12] = system: ECHCG (Barnyardgrass); assay: Preemergence herbicidal evaluation; assay type: in vivo, Echinochloa crus-galli; settings: rated 4-5 weeks after treatment
Summary of the method: as §2

[13] = system: GLXMAW (Soybean, Williams); assay: Preemergence herbicidal evaluation; assay type: in vivo, Glycine max, (L.) Merr. cv Williams; settings: rated 4-5 weeks after treatment
Summary of the method: as §2

[14] = system: TRZAWR (Wheat, Winter, cv Riband); assay: Preemergence herbicidal evaluation; assay type: in vivo, Triticum aestivum; settings: rated 4-5 weeks after treatment
Summary of the method: as §2

[15] = system: ZEAMX (Corn, Field); assay: Preemergence herbicidal evaluation; assay type: in vivo, Zea mays; settings: rated 4-5 weeks after treatment
Summary of the method: as §2

[16] = system: CYPIR (Rice Flatsedge); assay: Postemergence weed control under flooded paddy conditions; assay type: in vivo, Cyperus iria; settings: postemergence weeds, 3-4 weeks after treatment
Summary of the method: (§3)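 Flood-water application, about 0.0313–0.500 kg/ha a.i. in aqueous/acetone 50/50 v/v; water depth 1.5–3 cm throughout. Weeds 3–5 cm, rice 1.5–2.5 leaf. Greenhouse; 0–9 visual rating vs control at 3–4 wk.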

[17] = system: CYPSE (Flatsedge); assay: as above; assay type: in vivo, Cyperus serotinus; settings: postemergence weeds, 3-4 weeks after treatment
Summary of the method: as §3

CCOC(=O)COc1ccccc1CC1S/C(=N/c2cc(-n3c(=O)cc(C(F)(F)F)n(C)c3=O)c(F)cc2Cl)N(CC(=O)OCC)C1=O (stereo not shown) [Compound 42, 2-{{2-Chloro-5-[3,6-dihydro-3-methyl-2,6-dioxo-4-(trifluoromethyl)-1(2H)-pyrimidinyl]-4-fluoro-phenyl}imino}-5-(o-hydroxybenzyl)-4-oxo-3-thiazolidineacetic acid, ethyl ester, ester with ethyl glycolate]
Postemergence herbicidal rating ABUTH ([1]; Rate 0.0158 kg/ha): 9.0
Postemergence herbicidal rating ABUTH ([1]; Rate 0.0315 kg/ha): 9.0
Postemergence herbicidal rating ABUTH ([1]; Rate 0.0630 kg/ha): 9.0
Postemergence herbicidal rating CHEAL ([2]; Rate 0.0158 kg/ha): 3.0
Postemergence herbicidal rating CHEAL ([2]; Rate 0.0315 kg/ha): 9.0
Postemergence herbicidal rating CHEAL ([2]; Rate 0.0630 kg/ha): 6.0
Postemergence herbicidal rating IPOHE ([3]; Rate 0.0158 kg/ha): 9.0
Postemergence herbicidal rating IPOHE ([3]; Rate 0.0315 kg/ha): 9.0
Postemergence herbicidal rating IPOHE ([3]; Rate 0.0630 kg/ha): 9.0
Postemergence herbicidal rating ECHCG ([4]; Rate 0.0158 kg/ha): 1.0
Postemergence herbicidal rating ECHCG ([4]; Rate 0.0315 kg/ha): 2.0
Postemergence herbicidal rating ECHCG ([4]; Rate 0.0630 kg/ha): 4.0
Postemergence herbicidal rating SETVI ([5]; Rate 0.0158 kg/ha): 0.0
Postemergence herbicidal rating SETVI ([5]; Rate 0.0315 kg/ha): 1.0
Postemergence herbicidal rating SETVI ([5]; Rate 0.0630 kg/ha): 1.0
Postemergence herbicidal rating ORYSAT ([6]; Rate 0.0158 kg/ha): 2.5
Postemergence herbicidal rating ORYSAT ([6]; Rate 0.0315 kg/ha): 2.5
Postemergence herbicidal rating ORYSAT ([6]; Rate 0.0630 kg/ha): 3.0
Postemergence herbicidal rating ZEAMX ([7]; Rate 0.0158 kg/ha): 4.5
Postemergence herbicidal rating ZEAMX ([7]; Rate 0.0315 kg/ha): 4.5
Postemergence herbicidal rating ZEAMX ([7]; Rate 0.0630 kg/ha): 4.5
Preemergence herbicidal rating ABUTH ([8]; rate 0.0313 kg/ha): 1.0
Preemergence herbicidal rating ABUTH ([8]; rate 0.0625 kg/ha): 1.0
Preemergence herbicidal rating ABUTH ([8]; rate 0.1250 kg/ha): 9.0
Preemergence herbicidal rating ABUTH ([8]; rate 0.2500 kg/ha): 9.0
Preemergence herbicidal rating CASOB ([9]; rate 0.0313 kg/ha): 0.0
Preemergence herbicidal rating CASOB ([9]; rate 0.0625 kg/ha): 1.0
Preemergence herbicidal rating CASOB ([9]; rate 0.1250 kg/ha): 0.0
Preemergence herbicidal rating CASOB ([9]; rate 0.2500 kg/ha): 0.0
Preemergence herbicidal rating CHEAL ([10]; rate 0.0313 kg/ha): 0.0
Preemergence herbicidal rating CHEAL ([10]; rate 0.0625 kg/ha): 1.0
Preemergence herbicidal rating CHEAL ([10]; rate 0.1250 kg/ha): 3.0
Preemergence herbicidal rating CHEAL ([10]; rate 0.2500 kg/ha): 9.0
Preemergence herbicidal rating IPOHE ([11]; rate 0.0313 kg/ha): 0.0
Preemergence herbicidal rating IPOHE ([11]; rate 0.0625 kg/ha): 0.0
Preemergence herbicidal rating IPOHE ([11]; rate 0.1250 kg/ha): 0.0
Preemergence herbicidal rating IPOHE ([11]; rate 0.2500 kg/ha): 0.0
Preemergence herbicidal rating ECHCG ([12]; rate 0.0313 kg/ha): 0.0
Preemergence herbicidal rating ECHCG ([12]; rate 0.0625 kg/ha): 0.0
Preemergence herbicidal rating ECHCG ([12]; rate 0.1250 kg/ha): 0.0
Preemergence herbicidal rating ECHCG ([12]; rate 0.2500 kg/ha): 0.0
Preemergence herbicidal rating GLXMAW ([13]; rate 0.0313 kg/ha): 0.0
Preemergence herbicidal rating GLXMAW ([13]; rate 0.0625 kg/ha): 0.0
Preemergence herbicidal rating GLXMAW ([13]; rate 0.1250 kg/ha): 1.0
Preemergence herbicidal rating GLXMAW ([13]; rate 0.2500 kg/ha): 1.0
Preemergence herbicidal rating TRZAWR ([14]; rate 0.0313 kg/ha): 0.0
Preemergence herbicidal rating TRZAWR ([14]; rate 0.0625 kg/ha): 0.0
Preemergence herbicidal rating TRZAWR ([14]; rate 0.1250 kg/ha): 0.0
Preemergence herbicidal rating TRZAWR ([14]; rate 0.2500 kg/ha): 0.0
Preemergence herbicidal rating ZEAMX ([15]; rate 0.0313 kg/ha): 0.0
Preemergence herbicidal rating ZEAMX ([15]; rate 0.0625 kg/ha): 1.0
Preemergence herbicidal rating ZEAMX ([15]; rate 0.1250 kg/ha): 0.0
Preemergence herbicidal rating ZEAMX ([15]; rate 0.2500 kg/ha): 1.0
Herbicidal rating CYPIR ([16]; rate 0.0313 kg/ha): 0.0
Herbicidal rating CYPIR ([16]; rate 0.0625 kg/ha): 0.0
Herbicidal rating CYPIR ([16]; rate 0.1250 kg/ha): 0.0
Herbicidal rating CYPIR ([16]; rate 0.2500 kg/ha): 0.0
Herbicidal rating CYPSE ([17]; rate 0.0313 kg/ha): 0.0
Herbicidal rating CYPSE ([17]; rate 0.0625 kg/ha): 0.0
Herbicidal rating CYPSE ([17]; rate 0.1250 kg/ha): 0.0
Herbicidal rating CYPSE ([17]; rate 0.2500 kg/ha): 0.0
